Source: ChEMBL document CHEMBL5505974, “Design, synthesis, and bioactivity evaluation of novel indole-selenide derivatives as P-glycoprotein inhibitors against multi-drug resistance in MCF-7/ADR cell” (Eur J Med Chem, 2024)
The source made the active and inactive calls. The rule behind the calls is not given here.

Columns and labels:
NCI/ADR-RES [1] = experiment: Cytotoxicity against doxorubicin resistant human MCF-7/ADR cells assessed as inhibition rate at 5 uM incubated for 48 hrs by CCK8 assay relative to control; assay type: functional
NCI/ADR-RES [2] = experiment: Reversal fold, ratio of doxorubicin IC50 to doxorubicin IC50 in presence of test compound for reversal of P-gp mediated multidrug resistance in doxorubicin resistant human MCF-7/ADR cells incubated for 48 hrs by CCK-8 assay; assay type: functional
MCF7 = experiment: Cytotoxicity against chemo-sensitive human MCF7 cells assessed as inhibition rate at 5 uM incubated for 48 hrs by CCK8 assay relative to control; assay type: functional
NCI/ADR-RES [3] = experiment: Effect on P-gp expression level in doxorubicin-resistant human MCF-7/ADR cells at 0.5 to 5 uM incubated for 48 hrs by Western blot analysis; assay type: functional, cell-based; conditions: dose 0.5-5 µM
[4] = target: T1, ATP-dependent translocase ABCB1 (Homo sapiens, UniProt P08183); experiment: Inhibition of P-gp in doxorubicin resistant human MCF-7/ADR cells assessed as increase in UIC-2 binding to cell at 50 uM incubated for 10 mins by UIC-2 reactivity shift assay; assay type: cell-based
T1 sequence (P08183 whole entry): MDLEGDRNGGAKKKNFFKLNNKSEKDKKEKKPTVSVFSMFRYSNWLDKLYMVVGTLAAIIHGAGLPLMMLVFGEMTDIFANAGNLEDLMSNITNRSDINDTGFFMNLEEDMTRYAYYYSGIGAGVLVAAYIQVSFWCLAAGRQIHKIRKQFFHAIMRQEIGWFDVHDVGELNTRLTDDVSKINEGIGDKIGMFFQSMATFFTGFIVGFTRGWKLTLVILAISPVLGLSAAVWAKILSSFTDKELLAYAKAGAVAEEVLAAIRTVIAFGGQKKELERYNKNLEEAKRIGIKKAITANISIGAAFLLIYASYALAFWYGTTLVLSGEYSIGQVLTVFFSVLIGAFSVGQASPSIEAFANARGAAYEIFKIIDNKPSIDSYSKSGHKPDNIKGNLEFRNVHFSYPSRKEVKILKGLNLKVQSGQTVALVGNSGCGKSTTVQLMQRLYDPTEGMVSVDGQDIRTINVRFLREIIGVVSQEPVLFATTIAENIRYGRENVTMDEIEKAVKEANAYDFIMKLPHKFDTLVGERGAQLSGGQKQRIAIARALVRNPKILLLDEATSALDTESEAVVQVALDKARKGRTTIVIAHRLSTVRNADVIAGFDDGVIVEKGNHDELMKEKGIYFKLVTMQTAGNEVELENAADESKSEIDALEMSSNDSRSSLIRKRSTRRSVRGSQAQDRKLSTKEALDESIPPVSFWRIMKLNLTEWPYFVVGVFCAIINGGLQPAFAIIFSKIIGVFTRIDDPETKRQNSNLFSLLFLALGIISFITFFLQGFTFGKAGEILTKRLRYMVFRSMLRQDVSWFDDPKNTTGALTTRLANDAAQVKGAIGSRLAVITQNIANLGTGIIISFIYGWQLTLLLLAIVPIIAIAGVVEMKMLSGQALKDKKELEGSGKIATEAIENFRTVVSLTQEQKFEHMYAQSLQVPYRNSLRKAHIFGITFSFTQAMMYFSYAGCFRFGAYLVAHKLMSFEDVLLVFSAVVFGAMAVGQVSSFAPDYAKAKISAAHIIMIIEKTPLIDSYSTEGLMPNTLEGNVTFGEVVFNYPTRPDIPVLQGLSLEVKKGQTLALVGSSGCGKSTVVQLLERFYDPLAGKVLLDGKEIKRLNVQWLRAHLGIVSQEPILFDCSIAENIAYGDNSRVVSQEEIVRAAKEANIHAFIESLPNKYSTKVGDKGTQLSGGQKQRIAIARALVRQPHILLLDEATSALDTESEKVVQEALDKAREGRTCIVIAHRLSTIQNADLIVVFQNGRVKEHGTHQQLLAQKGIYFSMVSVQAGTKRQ

[5] = target: T1, ATP-dependent translocase ABCB1; experiment: Inhibition of P-gp-mediated rhodamine-123 efflux in doxorubicin-resistant human MCF-7/ADR cells assessed as increase in Rh123 accumulation incubated for 4 hrs by fluorescence microscopic analysis; assay type: cell-based; conditions: at 0.1 to 10 µM, dose 0.1-10 µM

Row | inhibition (INH) [4] | inhibition (INH) [5] | Structure (SMILES) | inhibition at 5 µM (NCI/ADR-RES [1]) [%] | Ratio IC50 (NCI/ADR-RES [2]) | inhibition at 5 µM (MCF7) [%] | Activity (NCI/ADR-RES [3])
1 | – | – | COc1ccc(CNC(=O)c2ccc([Se]c3c[nH]c4ccccc34)cc2)cc1OC | 18.3 | 3.61 | 11.9 | –
2 | – | – | CNC(=O)c1cccc2c([Se]c3cccc(C(=O)NCc4ccccn4)c3)c[nH]c12 | 13.2 | 2 | 9.2 | –
3 | – | – | O=C(NCc1ccccn1)c1cccc([Se]c2c[nH]c3ccc(C(=O)Nc4ccc(F)cc4)cc23)c1 | 10.1 | 2.7 | 7 | –
4 | – | – | COc1ccc(Cn2cc([Se]c3cccc(C(=O)Nc4ccc(OC)c(OC)c4)c3)c3ccccc32)cc1 | 7 | 16.4 | 4.2 | –
5 | – | – | C/C=C/C[C@@H](C)[C@@H](O)[C@H]1C(=O)N[C@@H](CC)C(=O)N(C)CC(=O)N(C)[C@@H](CC(C)C)C(=O)N[C@@H](C(C)C)C(=O)N(C)[C@@H](CC(C)C)C(=O)N[C@@H](C)C(=O)N[C@H](C)C(=O)N(C)[C@@H](CC(C)C)C(=O)N(C)[C@@H](CC(C)C)C(=O)N(C)[C@@H](C(C)C)C(=O)N1C [CYCLOSPORINE] | 25.6 | – | – | –
6 | – | – | COc1cc2c(cc1OC)CN(C(=O)c1cccc([Se]c3c[nH]c4ccc(C(=O)NCCN(C)C)cc34)c1)CC2 | 13.6 | 7.5 | 9.7 | –
7 | – | – | COc1ccc(Cn2cc([Se]c3cccc(C(=O)N4CCc5cc(OC)c(OC)cc5C4)c3)c3ccccc32)cc1 | 4.7 | 25.8 | 10.5 | –
8 | – | – | CNC(=O)c1ccc2c([Se]c3cccc(C(=O)NCc4ccccn4)c3)c[nH]c2c1 | 10.8 | 1.2 | 13.3 | –
9 | – | – | CNC(=O)c1ccc2[nH]cc([Se]c3cccc(C(=O)N4CCc5cc(OC)c(OC)cc5C4)c3)c2c1 | 9.4 | 5.1 | 1.2 | –
10 | – | – | COc1ccc(CNC(=O)c2cccc([Se]c3c[nH]c4ccccc34)c2)cc1OC | 15.4 | 2.4 | 8.6 | –
11 | – | – | COc1cc2c(cc1OC)CN(C(=O)c1cccc(Sc3c[nH]c4ccc(-c5cnn(C)c5)cc34)c1)CC2 | 19.6 | 46.3 | 22.7 | –
12 | – | – | CNC(=O)c1ccc2[nH]cc([Se]c3cccc(C(=O)NCc4ccccn4)c3)c2c1 | 12.8 | 5.7 | 15.1 | –
13 | – | – | COc1ccc(NC(=O)c2cccc([Se]c3c[nH]c4ccc(-c5cnn(C)c5)cc34)c2)cc1OC | 47 | 98.4 | 35.6 | –
14 | – | – | COc1ccc(-c2ccc(C(=O)N3CCc4cc(OC)c(OC)cc4C3)o2)cc1 | 16.3 | 23.7 | 11.7 | –
15 | – | – | COc1ccc(NC(=O)c2ccc3[nH]cc([Se]c4cccc(C(=O)Nc5ccc(OC)c(OC)c5)c4)c3c2)cc1 | 1.7 | 5.2 | 5.2 | –
16 | – | – | COc1ccc(NC(=O)c2ccc3[nH]cc([Se]c4cccc(C(=O)N5CCc6cc(OC)c(OC)cc6C5)c4)c3c2)cc1 | 8.7 | 9.1 | 5.9 | –
17 | – | – | CN(C)CCNC(=O)c1ccc2[nH]cc([Se]c3cccc(C(=O)NCc4ccccn4)c3)c2c1 | 20.9 | 3.6 | 15.5 | –
18 | – | – | O=C(NCc1ccccn1)c1cccc([Se]c2c[nH]c3ncccc23)c1 | 3 | 2 | 1 | –

Row | inhibition (INH) [4] | inhibition (INH) [5] | Structure (SMILES) | inhibition at 5 µM (NCI/ADR-RES [1]) [%] | Ratio IC50 (NCI/ADR-RES [2]) | inhibition at 5 µM (MCF7) [%] | Activity (NCI/ADR-RES [3])
19 | – | – | COc1ccc(NC(=O)c2ccc3[nH]cc([Se]c4cccc(C(=O)NCc5ccccn5)c4)c3c2)cc1 | 9 | 4.4 | 6.6 | –
20 | – | – | COc1ccc(NC(=O)c2ccc([Se]c3c[nH]c4ccccc34)cc2)cc1OC | 7.3 | 3.98 | 5.5 | –
21 | – | – | O=C(NCc1ccccn1)c1cccc([Se]c2c[nH]c3ccc(F)cc23)c1 | 13.5 | 2.7 | 3.6 | –
22 | – | – | COc1ccc(CNC(=O)c2cccc([Se]c3c[nH]c4ncccc34)c2)cc1OC | 13.4 | 4 | 15.7 | –
23 | – | – | O=C(NCc1ccccn1)c1cccc([Se]c2c[nH]c3ccccc23)c1 | 15.1 | 8.49 | 17.5 | –
24 | – | – | COc1cc2c(cc1OC)CN(C(=O)c1cccc([Se]c3c[nH]c4ccc(C(=O)NC(C)C)cc34)c1)CC2 | 13 | 3.9 | 11.2 | –
25 | – | – | COc1cc2c(cc1OC)CN(C(=O)c1ccc([Se]c3c[nH]c4ccccc34)cc1)CC2 | 3.2 | 3.06 | 1.2 | –
26 | – | – | COc1cc2c(cc1OC)CN(C(=O)c1cccc([Se]c3c[nH]c4ccccc34)c1)CC2 | 11.2 | 4.12 | 1.8 | –
27 | – | – | COc1ccc(NC(=O)c2cccc([Se]c3c[nH]c4ccccc34)c2)cc1OC | 9.2 | 5.67 | 5.2 | –
28 | – | – | COc1cc2c(cc1OC)CN(C(=O)c1cccc([Se]c3c[nH]c4ccc(F)cc34)c1)CC2 | 26 | 95.1 | 17.4 | –
29 | – | – | COc1ccc(NC(=O)c2cccc([Se]c3c[nH]c4ncccc34)c2)cc1OC | 2 | 4.2 | 6.3 | –
30 | – | – | COc1cc2c(cc1OC)CN(C(=O)c1cccc([Se]c3c[nH]c4ccc(C(=O)Nc5ccc(F)cc5)cc34)c1)CC2 | 1.3 | 6.9 | 9.6 | –
31 | Active | Dose-Dependent Effect | COc1cc2c(cc1OC)CN(C(=O)c1cccc([Se]c3c[nH]c4ccc(-c5cnn(C)c5)cc34)c1)CC2 | 33.7 | 271.7 | 21.1 | inactive
32 | – | – | O=C(NCc1ccccn1)c1ccc([Se]c2c[nH]c3ccccc23)cc1 | 2.2 | 1.65 | 0.2 | –
33 | – | – | COc1ccc(CCN(C)CCCC(C#N)(c2ccc(OC)c(OC)c2)C(C)C)cc1OC (centres undefined) | – | – | 8.3 | –
34 | – | – | COc1cc2c(cc1OC)CN(CCc1ccc(NC(=O)c3cc(OC)c(OC)cc3NC(=O)c3cnc4ccccc4c3)cc1)CC2 | 45.1 | 261.6 | 36.9 | –
35 | – | – | COc1cc2c(cc1OC)CN(C(=O)c1cccc([Se]c3c[nH]c4ncccc34)c1)CC2 | 5.8 | 2.8 | 7.7 | –
